Data taken from ChEMBL document CHEMBL4840319, “Aromatic Cadinane Sesquiterpenoids from the Fruiting Bodies of Phellinus pini Block SARS-CoV-2 Spike-ACE2 Interaction” (J Nat Prod, 2021).

What was measured:
[1] = target: Spike glycoprotein/Angiotensin-converting enzyme 2 (Severe acute respiratory syndrome coronavirus 2) (UniProt Q9BYF1+P0DTC2); test: Inhibition of SARS-CoV-2 spike glycoprotein/ His tagged human ACE2 interaction at 100 uM incubated for 1 hr followed by substrate addition and measured after 15 mins by ELISA relative to control; assay type: protein assay
[2] = target: Spike glycoprotein/Angiotensin-converting enzyme 2 (Severe acute respiratory syndrome coronavirus 2, UniProt P0DTC2+Q9BYF1); test: Inhibition of SARS-CoV-2 spike glycoprotein/ His tagged human ACE2 interaction incubated for 1 hr followed by substrate addition and measured after 15 mins by ELISA; assay type: protein assay
Chain of Spike glycoprotein/Angiotensin-converting enzyme 2 (Q9BYF1 18-805 limits assumed, other chains not shown): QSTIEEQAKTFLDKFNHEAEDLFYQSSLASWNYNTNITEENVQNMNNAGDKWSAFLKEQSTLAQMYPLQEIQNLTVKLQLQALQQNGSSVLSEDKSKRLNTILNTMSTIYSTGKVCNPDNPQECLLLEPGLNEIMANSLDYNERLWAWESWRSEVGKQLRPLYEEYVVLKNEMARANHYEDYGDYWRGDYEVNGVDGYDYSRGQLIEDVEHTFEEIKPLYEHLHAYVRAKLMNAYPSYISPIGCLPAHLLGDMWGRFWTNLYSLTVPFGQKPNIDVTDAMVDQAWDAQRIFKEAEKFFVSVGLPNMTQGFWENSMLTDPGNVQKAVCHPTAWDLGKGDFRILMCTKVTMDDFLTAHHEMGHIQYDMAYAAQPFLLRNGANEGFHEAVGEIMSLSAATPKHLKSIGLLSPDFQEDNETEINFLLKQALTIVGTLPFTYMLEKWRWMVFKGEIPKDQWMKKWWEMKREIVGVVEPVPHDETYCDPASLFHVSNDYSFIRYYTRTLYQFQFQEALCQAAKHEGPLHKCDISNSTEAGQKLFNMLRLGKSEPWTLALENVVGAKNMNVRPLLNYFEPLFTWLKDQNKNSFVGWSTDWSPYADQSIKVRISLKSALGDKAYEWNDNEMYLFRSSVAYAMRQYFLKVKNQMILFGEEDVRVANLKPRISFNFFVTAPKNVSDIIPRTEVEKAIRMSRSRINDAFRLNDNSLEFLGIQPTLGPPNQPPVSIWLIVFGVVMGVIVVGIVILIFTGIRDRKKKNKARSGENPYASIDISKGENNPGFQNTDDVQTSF

Row | Compound | inhibition [1] [%] | IC50 [2] [µM]
1 | C[C@@H](CO)c1ccc(C(=O)O)c2ccc(C(=O)O)cc12 | > 50 | 76.1
2 | CC(C)c1ccc(CO)c2ccc(C(=O)O)cc12 | > 50 | 99.1
3 | C[C@@H](CO)c1ccc(CO)c2ccc(C(=O)O)cc12 | > 50 | 94.4
4 | CC(C)(O)c1ccc(CO)c2ccc(C(=O)O)cc12 | > 50 | 64.5
5 | CC(C)c1ccc(C(=O)O)c2ccc(C(=O)O)cc12 | > 50 | 95.1
